The source of these data is the METLIN SMRT retention time set (Domingo-Almenara et al. 2019).

A short description of this data set: gradient 5% acetonitrile 3 min, to 50% in 2 min, to 85% in 15 min, held 3 min, 100 µL/min. The following applies: column: Zorbax Extend-C18 2.1 x 50 mm; eluents: water / acetonitrile, 0.1% formic acid. The essentials:
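In both positive and negative ionization mode, a quadrupole time-of-flight mass spectrometer coupled to HPLC analyzed pure standards run in mixtures of ~100 molecules. The Zorbax Extend-C18 column (2.1 × 50 mm, 1.8 μm) was operated at 100 μL/min with water and acetonitrile, each containing 0.1% formic acid. The dead volume was 40 μL and the dwell volume 900 μL. Retention time came from adduct peaks that were computationally picked and individually inspected by hand.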
In the case of `CN1CCCC1c1nc(C2CN(C(=O)c3cnccn3)C2)no1` (stereo not drawn), the RP-LC retention time worked out at 546 s.

Compound `CCc1nc(-c2cc(S(=O)(=O)NCC(=O)NC3CCCCC3)c(C)s2)no1` yielded an RP-LC retention time of 906 s. As for `O=S(=O)(c1cc(-c2nnc(C3CCCC3)o2)co1)N1CCN(C2CCCCC2)CC1`, the RP-LC retention time came to 715 s. For `CN1CCCCCCN(C(=O)Nc2ccc3c(c2)OCCO3)CCC1=O`, the RP-LC retention time worked out at 745 s. On to `CCNC(=O)N1CCCC(c2cccc(C(=O)NCc3ccccc3C(F)(F)F)c2)C1` (stereo not drawn), for which the RP-LC retention time was found to be 905 s. The result for `Cc1cc(S(=O)(=O)Nc2ccc(Cn3cncn3)cc2)ccc1F` reads 743 s. Compound `Cc1cc2c(cc1S(=O)(=O)N1CCCC1C(=O)NCc1ccc3c(c1)OCO3)OCC(=O)N2` (stereo not drawn) came in with an RP-LC retention time of 718 s. Next, `NC1(Cc2ccc(Cl)cc2)CCN(c2ncnc3[nH]ccc23)CC1`: 602 s; `COc1ccc(-n2c(CN3CCN(C(=O)NC(C)(C)C)CC3)nc3cccnc32)cc1`: 640 s.

As to `COc1ccc2[nH]cc(CCNC(=O)c3ccc(N4CCCC4)c(S(=O)(=O)N4CCCC4)c3)c2c1`, the RP-LC retention time amounted to 921 s. The result for `O=C(NCc1ccc(F)cc1)c1ccc(-c2cccs2)nc1` reads 869 s. The result for `CCCNC(=O)C1CCN(c2ccc(SCC(=O)Nc3cccc(Cl)c3C)nn2)CC1` reads 678 s; that for `Cc1oc2c(c1C(=O)N(C)C)CN(S(=O)(=O)Cc1ccccc1)CC2`, 740 s; that for `COc1ccc(C)cc1NC(=O)C1CCN(S(=O)(=O)c2ccc3c(c2)NC(=O)C(C)O3)CC1` (stereo not drawn), 788 s. `O=C(NCCC1=CCCCC1)C1CCCN(c2ccc3nncn3n2)C1` (stereo not drawn) had an RP-LC retention time of 770 s. `c1cncc(-c2nc(-c3ccc(-n4ccnc4)nc3)no2)c1` returned an RP-LC retention time of 597 s. `Cc1cnc(C2CC2)n1CCNS(=O)(=O)c1ccccc1F`: the RP-LC retention time is 587 s.

For `Cc1cc(N2CCN(C(=O)Nc3ccc(F)c(Cl)c3)CC2)nc(N2CCCC2)n1`, the RP-LC retention time was found to be 701 s. `Cc1ccc(CN2CCN(CC(=O)Nc3ccc(Cl)cn3)C(=O)C2=O)cc1` yielded an RP-LC retention time of 759 s.

Compound `CC(C)N1C(=O)c2cccnc2Sc2cc(NC(=O)c3ccccc3)ccc21` yielded an RP-LC retention time of 864 s. Take `CC(C)CNC(=O)NCCn1nnc2cc(C(=O)N3CCCC3)ccc21`: the RP-LC retention time worked out at 618 s. Next, `COc1cc(-c2nc3ccc(C)cn3c2Nc2ccc3c(c2)OCCO3)ccc1O`: 636 s; `COc1ccc(-n2c(=O)c3sccc3n(Cc3nc(-c4cccc(OC)c4)no3)c2=O)cc1`: 949 s. `O=C1CC(/C=C/c2ccccc2)Cc2nc(N3CCN(Cc4ccc5c(c4)OCO5)CC3)ncc21` (stereo not drawn) had an RP-LC retention time of 782 s. The compound `COc1ccc(NC(=O)CSc2nc3ccccc3o2)c(OC)c1` yielded an RP-LC retention time of 896 s. The result for `COc1ccc(Cl)cc1NC(=O)Cn1c(=O)n(-c2ccc(F)cc2)c(=O)c2c1cc(C)n2C` reads 938 s; that for `Cc1ccc(NC(=O)Cn2c(C)nc3onc(C)c3c2=O)c(C)c1`, 800 s. For the compound `O=C(NC(c1ccccc1)c1nnc(N2CCOCC2)o1)c1ccc(Cl)cc1` (stereo not drawn), the RP-LC retention time is 781 s. For `COc1ccc(-c2nnc(N3CCC(C(=O)N4CCN(C)CC4)CC3)o2)cc1`, the RP-LC retention time was found to be 582 s.

Regarding `O=C(NCCN1CCOCC1)C1CCN(Cc2cc3ccccc3n2Cc2ccccc2Cl)CC1`, the RP-LC retention time is 621 s. `O=C(NCc1ccc2c(c1)OCO2)C1CCN(c2cnc(N3CCSCC3)nc2)CC1` showed an RP-LC retention time of 763 s.

As for `CC(=O)Nc1ccc(C2(C(=O)NCc3cccc(Cl)c3)CCC2)cc1`, the RP-LC retention time amounted to 785 s.

`O=S(=O)(Cc1ccccc1)N1CCCC(Cc2nncn2CC2CC2)C1` (stereo not drawn) displayed an RP-LC retention time of 631 s.

As for `CN(C)c1nc2ncn3c(=O)n(CC(=O)Nc4ccccc4)nc3c2s1`, the RP-LC retention time came out at 670 s. Next, `CCc1ccc(Nc2nc(C(=O)NC3CC3)nc3ccccc23)cc1`: 791 s.

In turn, `Cc1oc(-c2ccc(NC(=O)COc3ccccc3)cc2)nc1Cn1cccn1` registered an RP-LC retention time of 887 s. As for `O=C(COc1ccc(Cl)cc1Cl)NCC(=O)N1CCOC(c2ccccc2)C1` (stereo not drawn), the RP-LC retention time came out at 927 s.

As to `Cc1cnc(C(=O)NC2C[C@H]3CC[C@@H](C2)N3C(=O)c2cc(C)n(C)n2)cn1` (stereo partly drawn), the RP-LC retention time was 614 s. On to `CCc1nc(NCc2ccncc2)ncc1C(=O)O`, for which the RP-LC retention time was 555 s.

Compound `Cc1ccc2c(c1)C(=O)NC1(CCN(C(=O)c3cc(F)cc(F)c3)CC1)N2C` registered an RP-LC retention time of 752 s. The result for `COc1ccc2c(c1)C1(CCN(C(=O)Cc3cccc(F)c3)C1)C(=O)N2C` (stereo not drawn) reads 788 s; that for `CCCc1noc(-c2ccc(-n3cnc(C(=O)NC4CCCCCC4)c3)nc2)n1`, 1070 s.

On to `O=C(NCc1ccc2c(c1)OCO2)C1CCCN(S(=O)(=O)c2c[nH]c(C(=O)N3CCCC3)c2)C1` (stereo not drawn), for which the RP-LC retention time turned out to be 738 s. Take `CCNC(=O)C1CCN(C(=O)Nc2ccc(NC(=O)Nc3ccccc3)cc2)CC1`: the RP-LC retention time is 658 s. The compound `COc1ccc(-c2noc(C3CC(=O)N(c4cccc(Cl)c4)C3)n2)c(OC)c1` (stereo not drawn) displayed an RP-LC retention time of 878 s. With `CC(C)CCNS(=O)(=O)c1cc(-c2nc(C(C)(C)C)cs2)cs1`, the RP-LC retention time amounted to 1310 s. As for `Cn1c(=O)c2c3c(cnc2n(C)c1=O)C(=O)CC(c1cccc(Cl)c1)C3` (stereo not drawn), the RP-LC retention time amounted to 1020 s. Turning to `Cc1cccc(NC(=O)N2CCC(N3CCN(Cc4ccccc4)C(=O)C3=O)CC2)c1`, the RP-LC retention time is 744 s.

Compound `COCCN1C(=O)c2ccccc2C(C(=O)Nc2ccc(OC)c(OC)c2)C12CCCC2` (stereo not drawn) yielded an RP-LC retention time of 776 s. In turn, `N#Cc1ccc(N2C=C(C(=O)N3CCOCC3)S(=O)(=O)c3ccc(F)cc32)cc1` returned an RP-LC retention time of 726 s. `c1ccc(-c2nnc(-c3ccccc3)nn2)cc1`: the RP-LC retention time was found to be 1220 s.

For `CS(=O)(=O)N(C1CCOCC1)C1CN(C(=O)c2cc(F)ccc2F)C1`, the RP-LC retention time amounted to 687 s. `O=C(NCCN1CCOCC1)C1CCN(c2nccnc2Sc2ccccc2)CC1` yielded an RP-LC retention time of 627 s. The result for `Cc1ccc2c(=O)c(S(=O)(=O)c3ccccc3)cn(Cc3cccc(Cl)c3)c2n1` reads 1030 s. In the case of `CC(C)CN(Cc1cccnc1)C1CN(S(=O)(=O)c2cn(C)cn2)C1`, the RP-LC retention time came to 591 s. Next, `Clc1ccc(-c2nc(N3CCCC3)c3ccccc3n2)cc1`: 726 s. The result for `O=C(NC1CCN(Cc2ccccc2)CC1)C1CCCN(c2ncc(-c3cccc(F)c3)cn2)C1` (stereo not drawn) reads 753 s; that for `O=C(Cn1nc(N2CCSCC2)c2ccccc2c1=O)Nc1ccc(Br)cc1F`, 1060 s; that for `O=C(Nc1ccccc1)C1CCCN(c2nc3ccsc3c(=O)n2Cc2ccc(F)cc2)C1` (stereo not drawn), 971 s.

With `COc1cccc(C(=O)N2CCC3(CC2)NC(=O)c2ccc(F)cc2N3C)c1`, the RP-LC retention time is 752 s. Next, `CCn1c(C(=O)NC(C)CCc2ccccc2)cc2sccc21` (stereo not drawn): 1110 s; `O=C(CN(CC1CCCO1)C(=O)c1ccc(Cl)cc1)N1CCNCC1` (stereo not drawn): 605 s.

Regarding `CC(=O)N1CCc2cc(S(=O)(=O)C(C)CC(=O)NC3CCN(Cc4ccccc4)CC3)ccc21` (stereo not drawn), the RP-LC retention time is 551 s. Next, `CCC1CCCCN1CCCNC(=O)CCc1cc2cc(C)ccc2[nH]c1=O` (stereo not drawn): 600 s; `CC(C)OCCCNC(=O)c1cn(C)cc2c(=O)n(-c3ccccc3)nc1-2`: 851 s. With `CCOc1ccc(CC(=O)NCC2CCN(Cc3ccco3)CC2)cc1`, the RP-LC retention time worked out at 558 s.

`Cn1cc(SCC(=O)Nc2cccc(F)c2)c2ccccc21` had an RP-LC retention time of 896 s. As to `CCOc1ccc(CCNC(=O)c2cc(S(=O)(=O)N3CCCC3)c(C)n2C)cc1OCC`, the RP-LC retention time came out at 951 s. `CCn1cc2c3c(cccc31)CN(C(=O)Nc1cc(C)ccc1OC)CC2`: the RP-LC retention time turned out to be 1080 s. Consider `CC(C)(C)c1ccc(OCC(=O)Nc2ccnn2Cc2ccco2)cc1`, for which the RP-LC retention time stood at 1010 s. `C[C@H](NC(=O)C(C)(C)Oc1ccc(C(F)(F)F)cn1)[C@@H](Cc1ccc(Cl)cc1)c1cccc(C#N)c1` showed an RP-LC retention time of 1320 s. The result for `CSc1cccc(NC(=O)N2CCC[C@@H]2C(=O)NCc2csc(-c3ccccc3)n2)c1` reads 888 s; that for `Cc1cccc2nnc(N3CCN(C(=O)c4ccc(Cl)cc4)CC3)n12`, 629 s; that for `Cc1ccccc1N1CCN(c2nccn3nc(-c4ccccc4)cc23)CC1`, 1300 s. Regarding `Cc1nc(-c2csc(S(=O)(=O)N3CCN(c4cccc(Cl)c4)CC3)c2)sc1C`, the RP-LC retention time worked out at 1270 s. Take `CCOC(=O)c1cc2n(n1)CC(C)(C(=O)NCc1ccccc1)N(Cc1ccccc1)C2=O` (stereo not drawn): the RP-LC retention time amounted to 880 s. In the case of `Cc1ccc(NC(=O)N2CCCC(Cn3c(C4CC4)nc4cccnc43)C2)cc1F` (stereo not drawn), the RP-LC retention time stood at 717 s. With `Cn1cc(C(=O)NCc2cccc(Cl)c2)c(S(=O)(=O)N2CCSCC2)n1`, the RP-LC retention time was 892 s.
